Reference: US5399487A, “6-peptidylamino-1-naphthalenesulfonamides useful as fluorogenic proteolytic enzyme substrates” (Haematologic Technologies, Inc., priority 1993, dated 1995)

Experiments:
Type in all cases: biochemical
VIIa/TF/PCPS/Ca^2+ = biological target: T1, VIIa/TF/PCPS/Ca^2+ (Homo sapiens, UniProt P08709); assay: Fluorogenic factor VIIa assay (Example 6); settings: HBS, 37° C., 0.5 nM rVIIa
T1 construct: directly measure the enzymatic activity of factor VIIa in the presence and absence of tissue factor and phospholipid
Method: (§1) Factor VII assays were conducted in 20 mM HEPES, 150 mM NaCl, 5 mM CaCl2, pH 7.4 (HBS) at 37° C. The final volume for all reactions was 1.6 ml. 6-(Mes-D-Leu-Gly-Arg)amino-1-(N,N-diethyl)naphthalenesulfonamide was dissolved in DMSO to a stock concentration of 10 mM. This 10 mM stock solution of was diluted in HBS to final working concentration prior to all assays. For reactions involving tissue factor (TF) and phospholipid vesicles, recombinant human tissue factor was solubilized in either 0.04% n-dodecyl octaethylene glycol (C12 E8) or 0.8% octyl glucoside. The TF/n-dodecyl octaethylene glycol was then relipidated into PCPS or PC vesicles by a 30 minute incubation step as described by Lawson & Mann, J. Biol. Chem. 266: 11317-11327 (1991). TF/octyl glucoside was relipidated into PC or PCPS vesicles by a thirty minute incubation step followed by exhaustive dialysis. The final concentration of tissue factor used in the studies described here ranged from 2 to 50 nM depending on the nature of the experiment.
(§2) Fifteen minutes prior to the start of all reactions factor VIIa was added to the reaction system. This incubation period was followed by the addition of substrate (1 μM to 400 μM) to the mixture to start the reaction. In experiments designed to determine kinetic constants of substrate hydrolysis, 50 nM rVIIa was used when no tissue factor was present in the reaction system, while 0.5 nM rVIIa was used when tissue factor was present in the reaction system. The rate of substrate hydrolysis was measured by change in fluorescence over time, which corresponded with the generation of the 6-amino-1-(N,N-diethyl)naphthalenesulfonamide from the provided substrate. The kinetic constants of 6-(Mes-D-Leu-Gly-Arg)amino-1-(N,N-diethyl)naphthalenesulfonamide hydrolysis as a function of factor VIIa/tissue factor complex assembly are shown in Table 10.

VIIa/PCPS/Ca^2+ = biological target: T2, VIIa/PCPS/Ca^2+ (Homo sapiens, UniProt P08709); assay: Fluorogenic factor VIIa assay (Example 6); settings: HBS, 37° C., 50 nM rVIIa
T2 construct: directly measure the enzymatic activity of factor VIIa in the presence and absence of tissue factor and phospholipid
T2 sequence (P08709 213-466 limits assumed): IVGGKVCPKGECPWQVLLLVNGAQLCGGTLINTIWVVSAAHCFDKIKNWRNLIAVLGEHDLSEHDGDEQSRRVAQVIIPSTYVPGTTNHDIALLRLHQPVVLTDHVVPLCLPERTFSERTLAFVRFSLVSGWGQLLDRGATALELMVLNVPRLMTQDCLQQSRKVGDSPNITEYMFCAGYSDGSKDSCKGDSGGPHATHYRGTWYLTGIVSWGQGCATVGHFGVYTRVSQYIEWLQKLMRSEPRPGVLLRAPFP
T2 sequence (P08709 61-212 limits assumed): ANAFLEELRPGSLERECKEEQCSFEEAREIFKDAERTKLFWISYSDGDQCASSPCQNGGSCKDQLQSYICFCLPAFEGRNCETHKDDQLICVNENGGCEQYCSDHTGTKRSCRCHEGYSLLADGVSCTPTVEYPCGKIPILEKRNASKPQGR
Method: as §1, §2

VIIa/Ca^2+ = biological target: T3, VIIa/Ca^2+ (Homo sapiens, UniProt P08709); assay: Fluorogenic factor VIIa assay (Example 6); settings: HBS, 37° C., 50 nM rVIIa
T3 construct: directly measure the enzymatic activity of factor VIIa in the presence and absence of tissue factor and phospholipid
T3 sequence (P08709 213-466 limits assumed): T2 sequence (P08709 213-466 limits assumed)
T3 sequence (P08709 61-212 limits assumed): T2 sequence (P08709 61-212 limits assumed)
Method: as §1, §2

VIIa/TF/PC/CA^2+ = biological target: T4, VIIa/TF/PC/CA^2+ (Homo sapiens, UniProt P08709); assay: Fluorogenic factor VIIa assay (Example 6); settings: HBS, 37° C., 0.5 nM rVIIa
T4 construct: directly measure the enzymatic activity of factor VIIa in the presence and absence of tissue factor and phospholipid
Method: as §1, §2

thrombin (IIa) = biological target: T5, thrombin (IIa) (Homo sapiens, UniProt P00734); assay: Fluorogenic enzyme assay (Example 5)
T5 construct: 0.5 nM human thrombin (IIa)
Procedure, shortened: (§3)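 Run in TBS (20 mM Tris, 150 mM NaCl, pH 7.4) at 22° C; initial rates of fluorogenic substrate hydrolysis followed by release of 6-amino-1-naphthalenesulfonamide fluorophore (ex 352 nm, em 470 nm), quantified against fluorophore standard curve. Km and kcat derived by non-linear fit to Michaelis-Menten equation.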

urokinase (u-PA) = urokinase (u-PA) (Homo sapiens, UniProt P00749); assay: Fluorogenic enzyme assay (Example 5); settings: 100 nM enzyme, substrate 1 μM
[1] = biological target: tissue plasminogen activator (t-PA) (Homo sapiens, UniProt P00750); assay: Fluorogenic enzyme assay (Example 5); settings: 100 nM enzyme, substrate 1 μM
Procedure, shortened: as §3

plasmin (Plm) = plasmin (Plm) (Homo sapiens, UniProt P00747); assay: Fluorogenic enzyme assay (Example 5); settings: 10 nM enzyme, substrate 1 μM
Procedure, shortened: as §3

T4 sequence (P13726 33-295 partner, one chain of several): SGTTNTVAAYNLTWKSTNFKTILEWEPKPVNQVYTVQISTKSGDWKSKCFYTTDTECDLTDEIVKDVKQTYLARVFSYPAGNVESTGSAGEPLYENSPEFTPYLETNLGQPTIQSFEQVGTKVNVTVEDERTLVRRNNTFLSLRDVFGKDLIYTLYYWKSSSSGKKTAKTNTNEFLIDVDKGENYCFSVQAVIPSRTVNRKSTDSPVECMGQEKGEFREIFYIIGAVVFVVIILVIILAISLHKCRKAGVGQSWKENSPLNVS
T1 sequence (P13726 33-295 partner, one chain of several): as above
plasmin (Plm), sequence (P00747 581-810 limits assumed, species assumed): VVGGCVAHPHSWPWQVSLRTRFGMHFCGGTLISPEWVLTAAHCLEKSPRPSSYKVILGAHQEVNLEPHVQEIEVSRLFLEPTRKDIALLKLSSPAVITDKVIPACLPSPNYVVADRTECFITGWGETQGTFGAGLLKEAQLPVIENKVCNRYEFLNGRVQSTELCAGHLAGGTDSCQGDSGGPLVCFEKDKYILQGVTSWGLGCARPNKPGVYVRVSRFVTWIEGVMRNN
plasmin (Plm), sequence (P00747 97-580 limits assumed, species assumed): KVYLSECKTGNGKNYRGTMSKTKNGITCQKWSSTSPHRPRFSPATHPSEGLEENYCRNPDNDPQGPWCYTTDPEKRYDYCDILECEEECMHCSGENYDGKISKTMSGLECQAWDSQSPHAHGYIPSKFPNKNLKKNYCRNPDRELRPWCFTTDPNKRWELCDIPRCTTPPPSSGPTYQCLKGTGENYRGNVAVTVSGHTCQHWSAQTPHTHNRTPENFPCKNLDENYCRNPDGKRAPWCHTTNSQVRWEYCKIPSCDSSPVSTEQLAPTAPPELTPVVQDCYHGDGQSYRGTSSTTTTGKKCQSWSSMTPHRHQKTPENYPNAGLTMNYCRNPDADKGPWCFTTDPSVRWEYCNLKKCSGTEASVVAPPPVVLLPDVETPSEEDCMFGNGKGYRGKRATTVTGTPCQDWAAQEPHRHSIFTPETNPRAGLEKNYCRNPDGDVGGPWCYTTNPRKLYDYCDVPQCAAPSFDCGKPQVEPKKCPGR
tissue plasminogen activator (t-PA), sequence (P00750 36-562, species assumed): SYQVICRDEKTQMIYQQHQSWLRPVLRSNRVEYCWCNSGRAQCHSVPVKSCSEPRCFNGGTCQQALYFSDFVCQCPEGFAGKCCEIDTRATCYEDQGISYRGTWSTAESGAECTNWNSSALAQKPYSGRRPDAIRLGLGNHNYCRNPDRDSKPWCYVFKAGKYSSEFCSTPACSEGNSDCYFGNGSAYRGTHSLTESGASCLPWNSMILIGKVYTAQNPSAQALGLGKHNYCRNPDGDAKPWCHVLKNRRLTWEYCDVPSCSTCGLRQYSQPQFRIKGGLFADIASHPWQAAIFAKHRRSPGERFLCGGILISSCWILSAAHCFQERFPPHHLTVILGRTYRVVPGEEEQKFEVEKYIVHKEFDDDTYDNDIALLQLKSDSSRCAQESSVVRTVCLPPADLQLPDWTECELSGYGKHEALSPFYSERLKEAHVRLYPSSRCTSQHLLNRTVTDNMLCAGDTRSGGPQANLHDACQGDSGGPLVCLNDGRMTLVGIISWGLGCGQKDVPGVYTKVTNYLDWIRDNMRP

- kcat /Km (VIIa/TF/PCPS/Ca^2+): 4166 M^-1 S^-1
- kcat sec^-1 ± S.E. (VIIa/TF/PCPS/Ca^2+): 0.675 ± 0.046 s⁻¹
- Km (VIIa/TF/PCPS/Ca^2+; read-out: Km μM ± S.E.): 162 ± 16 µM
- kcat /Km (VIIa/PCPS/Ca^2+): 32.6 M^-1 S^-1
- kcat sec^-1 ± S.E. (VIIa/PCPS/Ca^2+): 0.019 ± 0.003 s⁻¹
- Km (VIIa/PCPS/Ca^2+; read-out: Km μM ± S.E.): 580 ± 101 µM
- kcat /Km (VIIa/Ca^2+): 41.4 M^-1 S^-1
- kcat sec^-1 ± S.E. (VIIa/Ca^2+): 0.010 ± 0.002 s⁻¹
- Km (VIIa/Ca^2+; read-out: Km μM ± S.E.): 249 ± 88.5 µM
- kcat /Km (VIIa/TF/PC/CA^2+): 4206 M^-1 S^-1
- kcat sec^-1 ± S.E. (VIIa/TF/PC/CA^2+): 0.875 ± 0.032 s⁻¹
- Km (VIIa/TF/PC/CA^2+; read-out: Km μM ± S.E.): 208 ± 12 µM
- TIME TO 10% HYDROLYSIS (HOURS), IIa (thrombin (IIa); 10 nM enzyme, substrate 1 μM): 0.33 h
- Km (thrombin (IIa); Table 9): 31.6 µM
- kcat /Km, IIa (thrombin (IIa); Table 9): 20000 M⁻¹ s⁻¹
- kcat, IIa (thrombin (IIa); Table 9): 0.63 s⁻¹
- TIME TO 10% HYDROLYSIS (HOURS), u-PA (urokinase (u-PA)): 2 h
- TIME TO 10% HYDROLYSIS (HOURS), t-PA [1]: 2 h
- TIME TO 10% HYDROLYSIS (HOURS), Plm (plasmin (Plm)): 1 h
SMILES: CCN(CC)S(=O)(=O)c1cccc2cc(NC(=O)[C@H](CCCNC(=N)N)NC(=O)CNC(=O)[C@@H](CC(C)C)NS(C)(=O)=O)ccc12 [MesD-LPR-ANSN(C2 H5)2, 6-(Mes-D-Leu-Gly-Arg)amino-1-(N,N-diethyl)napththalenesulfonamide]
